# Source: patent publication US4192896A, “Method of using dialkylphenols in the treatment of mycoplasma diseases” (priority 1979, dated 1980)
# What was measured:
# [1] = tested on: uninfected hamster tracheal explants; assay: Relative activity (explant viability: epithelial integrity x ciliary vigor) of uninfected hamster tracheal explants exposed to 2,4-DMP (toxicity); format: cell-based, golden hamster; conditions: for Relative activity following days of incubation with 2,4-DMP: uninfected explants, scale 0 to 300
# Procedure: (§1) Adult golden hamsters (approximately 140 g. male and female) were used as the tissue source. Animals appearing to be disease-free were selected. Tracheas were removed aseptically and sliced into rings. The rings were rinsed and then transfered into sterile Petri dishes containing a shallow layer of minimal essential medium (MEM, with glutamine, NaHCO3, 10% horse serum and 500 units of penicillin G/ml). These organ cultures were incubated for 24 hours at 36° C. in 5% carbon dioxide and then scored for "relative activity" (RA), a measure of explant viability. "Relative Activity" (0 to 300) is the product of the percentage of the epithelial layer which is intact (0 to 100) and the relative vigor of ciliary beating (0 to 3).
# Before undertaking further studies the determination of the toxicity of 2,4-DMP toward hamster tracheal explants and Mycoplasma pneumoniae is necessary.
# [2] = tested on: M. pneumoniae; assay: Growth of logarithmically growing cultures of M. pneumoniae in liquid culture with 2,4-DMP (CFU/ml); format: cell-based, Mycoplasma pneumoniae, strain PI 1428
# [3] = tested on: M. pneumoniae; assay: Relative activity of hamster tracheal explants infected with M. pneumoniae; format: cell-based; conditions: for Relative Activity Days Following Infection With M. Pneumoniae / Relative Activity 7 days post infection: infecting titer 6 × 10^6 CFU/ml; for Relative Activity 7 days post infection: Table 4
# Procedure: as §1
# (§2) The trachea rings were infected with M. pneumonia, strain PI 1428 (originally obtained from Dr. Robert Chanock, National Institutes of Health, Bethesda, Md.) which was used in the 10th to 12th passage and was grown on G-199 medium. Tracheal explants were infected with logarithmically growing cells using methods described by Gabridge, et al. Except where otherwise noted, groups of from 3 to 6 rings were preincubated for one hour in MEM with or without an appropriate amount of 2,4-dimethylphenol prior to the addition of mycoplasmas. Following exposure to M. pneumoniae for two hours, the rings were rinsed twice in phosphate buffered saline and then placed in a sterile Petri dish containing MEM and, where indicated, the required amount of 2,4-dimethylphenol or 2,4-DMP as used herein. Cultures were incubated at 36° in 5% carbon dioxide and scored daily for RA.
# (§3) Infection Studies: M. pneumoniae attaches to the surface (as used herein the surface refers to in luminal epithelial lining) of the tracheal tissue within an hour or two following exposure. Decreases in the vigor of ciliary activity and loss of epithelial cells are evident within 24 to 48 hours post-infection. In most cases, little or no ciliary activity remains by the sixth or seventh day.
# (§4) Time Course: In the studies reported thus far, tracheal explants were pretreated with 2,4-DMP for one hour before exposure to M. pneumoniae. Some insight into the nature, that is, the site or mode of action, of this protective phenomenon may be gained by altering the time at which 2,4-DMP is added to the culture media.
# [4] = tested on: M. pneumoniae; assay: Tetrazolium reduction by hamster tracheal explants infected with M. pneumoniae; format: cell-based; conditions: for Tetrazolium Reduction 7 days post infection: Table 4, infecting titer 6 × 10^6 CFU/ml
# Procedure: as §2, §4
# [5] = tested on: uninfected hamster tracheal explants; assay: Electron microscopic and histopathic examination of uninfected hamster tracheal explants exposed to 2,4-DMP; format: cell-based, golden hamster; conditions: 10^-3 and 10^-4 M
# Procedure: as §1
# [6] = tested on: M. pneumoniae; assay: Surface morphology of tracheal rings exposed to M. pneumoniae; format: cell-based; conditions: at least 10^-9 M
# Procedure: as §2, §3
# [7] = tested on: M. pneumoniae; assay: Protection of tracheal explants against the M. pneumoniae infective process (overall, in words); format: cell-based
# Procedure: as §1, §2, §4
# [8] = culture A, 2,4 DMP added at -1 hours
# [9] = culture B, 2,4 DMP added at 0 hours
# [10] = culture C, 2,4 DMP added at 1 hours
# [11] = culture D, 2,4 DMP added at 2 hours
# [12] = culture E, 2,4 DMP added at 6 hours
# [13] = culture F, 2,4 DMP added at 24 hours
# [14] = culture G, 2,4 DMP added at 48 hours
# [15] = culture H, 2,4 DMP added at 72 hours
smiles,measurement,setting,value
"Cc1ccc(O)c(C)c1 [2,4-DMP, 2,4-dimethylphenol]",reductions in RAs of uninfected explants,[1]; 10^-3 and 10^-4 M,Significant reductions in RAs
same,overt cytotoxic effects in uninfected rings,[1]; 10^-5 M or less,no overt cytotoxic effects
same,"Relative activity following days of incubation with 2,4-DMP","[1]; 10^-3 moles/liter, day 1",210 ± 19
same,"Relative activity following days of incubation with 2,4-DMP","[1]; 10^-3 moles/liter, day 2",155 ± 12
same,"Relative activity following days of incubation with 2,4-DMP","[1]; 10^-3 moles/liter, day 3",105 ± 16
same,"Relative activity following days of incubation with 2,4-DMP","[1]; 10^-3 moles/liter, day 4",75 ± 16
same,"Relative activity following days of incubation with 2,4-DMP","[1]; 10^-3 moles/liter, day 5",55 ± 12
same,"Relative activity following days of incubation with 2,4-DMP","[1]; 10^-3 moles/liter, day 6",50 ± 16
same,"Relative activity following days of incubation with 2,4-DMP","[1]; 10^-3 moles/liter, day 7",50 ±16
same,"Relative activity following days of incubation with 2,4-DMP","[1]; 10^-4 moles/liter, day 1",255 ± 16
same,"Relative activity following days of incubation with 2,4-DMP","[1]; 10^-4 moles/liter, day 2",240 ± 33
same,"Relative activity following days of incubation with 2,4-DMP","[1]; 10^-4 moles/liter, day 3",200 ± 49
same,"Relative activity following days of incubation with 2,4-DMP","[1]; 10^-4 moles/liter, day 4",160 ± 45
same,"Relative activity following days of incubation with 2,4-DMP","[1]; 10^-4 moles/liter, day 5",150 ± 27
same,"Relative activity following days of incubation with 2,4-DMP","[1]; 10^-4 moles/liter, day 6",140 ± 24
same,"Relative activity following days of incubation with 2,4-DMP","[1]; 10^-4 moles/liter, day 7",135 ± 16
same,"Relative activity following days of incubation with 2,4-DMP","[1]; 10^-5 moles/liter, day 1",265 ± 12
same,"Relative activity following days of incubation with 2,4-DMP","[1]; 10^-5 moles/liter, day 2",270 ± 0
same,"Relative activity following days of incubation with 2,4-DMP","[1]; 10^-5 moles/liter, day 3",264 ± 13
same,"Relative activity following days of incubation with 2,4-DMP","[1]; 10^-5 moles/liter, day 4",270 ± 0
same,"Relative activity following days of incubation with 2,4-DMP","[1]; 10^-5 moles/liter, day 5",264 ± 13
same,"Relative activity following days of incubation with 2,4-DMP","[1]; 10^-5 moles/liter, day 6",258 ± 16
same,"Relative activity following days of incubation with 2,4-DMP","[1]; 10^-5 moles/liter, day 7",252 ± 16
same,CFU/ml following days of culture,"[2]; 10^-3 moles/liter, day 0",2 × 10^4 CFU/ml
same,CFU/ml following days of culture,"[2]; 10^-3 moles/liter, day 1",5 × 10^4 CFU/ml
same,CFU/ml following days of culture,"[2]; 10^-3 moles/liter, day 2",6.3 × 10^4 CFU/ml
same,CFU/ml following days of culture,"[2]; 10^-3 moles/liter, day 3",6.5 × 10^4 CFU/ml
same,CFU/ml following days of culture,"[2]; 10^-3 moles/liter, day 4",6.7 × 10^4 CFU/ml
same,CFU/ml following days of culture,"[2]; 10^-3 moles/liter, day 5",4.1 × 10^4 CFU/ml
same,CFU/ml following days of culture,"[2]; 10^-3 moles/liter, day 6",3.3 × 10^4 CFU/ml
same,CFU/ml following days of culture,"[2]; 10^-3 moles/liter, day 7",1.5 × 10^4 CFU/ml
same,CFU/ml following days of culture,"[2]; 10^-5 moles/liter, day 0",2 × 10^4 CFU/ml
same,CFU/ml following days of culture,"[2]; 10^-5 moles/liter, day 1",1.2 × 10^5 CFU/ml
same,CFU/ml following days of culture,"[2]; 10^-5 moles/liter, day 2",7.5 × 10^6 CFU/ml
same,CFU/ml following days of culture,"[2]; 10^-5 moles/liter, day 3",2.5 × 10^7 CFU/ml
same,CFU/ml following days of culture,"[2]; 10^-5 moles/liter, day 4",6.0 × 10^7 CFU/ml
same,CFU/ml following days of culture,"[2]; 10^-5 moles/liter, day 6",1.5 × 10^7 CFU/ml
same,CFU/ml following days of culture,"[2]; 10^-5 moles/liter, day 7",4.3 × 10^6 CFU/ml
same,CFU/ml following days of culture,"[2]; 10^-8 moles/liter, day 0",2 × 10^4 CFU/ml
same,CFU/ml following days of culture,"[2]; 10^-8 moles/liter, day 1",1.5 × 10^5 CFU/ml
same,CFU/ml following days of culture,"[2]; 10^-8 moles/liter, day 2",7.2 × 10^6 CFU/ml
same,CFU/ml following days of culture,"[2]; 10^-8 moles/liter, day 3",2.4 × 10^7 CFU/ml
same,CFU/ml following days of culture,"[2]; 10^-8 moles/liter, day 4",6.3 × 10^7 CFU/ml
same,CFU/ml following days of culture,"[2]; 10^-8 moles/liter, day 5",5.2 × 10^7 CFU/ml
same,CFU/ml following days of culture,"[2]; 10^-8 moles/liter, day 6",1.1 × 10^7 CFU/ml
same,CFU/ml following days of culture,"[2]; 10^-8 moles/liter, day 7",4.2 × 10^6 CFU/ml
same,effect on mycoplasmal growth,[2]; higher concentrations (10^-3 M),inhibit mycoplasmal growth
same,effect on growth of the organism,[2]; lower amounts (10^-5 M),little or no effect on the growth of the organism
same,Relative Activity Days Following Infection With M. Pneumoniae,"[3]; 10^-8 moles/liter, day 1",270 ± 0
same,Relative Activity Days Following Infection With M. Pneumoniae,"[3]; 10^-8 moles/liter, day 2",270 ± 0
same,Relative Activity Days Following Infection With M. Pneumoniae,"[3]; 10^-8 moles/liter, day 3",260 ± 16
same,Relative Activity Days Following Infection With M. Pneumoniae,"[3]; 10^-8 moles/liter, day 4",260 ± 16
same,Relative Activity Days Following Infection With M. Pneumoniae,"[3]; 10^-8 moles/liter, day 5",260 ± 16
same,Relative Activity Days Following Infection With M. Pneumoniae,"[3]; 10^-8 moles/liter, day 6",255 ± 16
same,Relative Activity Days Following Infection With M. Pneumoniae,"[3]; 10^-8 moles/liter, day 7",255 ± 16
same,Relative Activity Days Following Infection With M. Pneumoniae,"[3]; 10^-10 moles/liter, day 1",260 ± 16
same,Relative Activity Days Following Infection With M. Pneumoniae,"[3]; 10^-10 moles/liter, day 2",255 ± 16
same,Relative Activity Days Following Infection With M. Pneumoniae,"[3]; 10^-10 moles/liter, day 3",240 ± 19
same,Relative Activity Days Following Infection With M. Pneumoniae,"[3]; 10^-10 moles/liter, day 4",175 ± 23
same,Relative Activity Days Following Infection With M. Pneumoniae,"[3]; 10^-10 moles/liter, day 5",150 ± 19
same,Relative Activity Days Following Infection With M. Pneumoniae,"[3]; 10^-10 moles/liter, day 6",135 ± 16
same,Relative Activity Days Following Infection With M. Pneumoniae,"[3]; 10^-10 moles/liter, day 7",115 ± 23
same,Relative Activity 7 days post infection,[3]; 10^-6 moles/liter,255 ± 16
same,Relative Activity 7 days post infection,[3]; 10^-7 moles/liter,255 ± 16
same,Relative Activity 7 days post infection,[3]; 10^-8 moles/liter,260 ± 10
same,Relative Activity 7 days post infection,[3]; 10^-9 moles/liter,263 ± 12
same,Relative Activity 7 days post infection,[3]; 10^-10 moles/liter,114 ± 22
same,Relative Activity 7 days post infection,[3]; 10^-14 moles/liter,125 ± 23
same,Relative Activity 7 days post infection,[3],124 ± 18
same,RA of rings exposed to M. pneumoniae compared with uninfected controls,[3]; at least 10^-9 M,indistinguishable from uninfected controls
same,Relative Activity 7 Days Following Infection With M. Pneumoniae,[3]; [8],268 ± 6
same,Relative Activity 7 Days Following Infection With M. Pneumoniae,[3]; [9],268 ± 6
same,Relative Activity 7 Days Following Infection With M. Pneumoniae,[3]; [10],265 ± 8
same,Relative Activity 7 Days Following Infection With M. Pneumoniae,[3]; [11],220 ± 23
same,Relative Activity 7 Days Following Infection With M. Pneumoniae,[3]; [12],188 ± 23
same,Relative Activity 7 Days Following Infection With M. Pneumoniae,[3]; [13],98 ± 16
same,Relative Activity 7 Days Following Infection With M. Pneumoniae,[3]; [14],95 ± 12
same,Relative Activity 7 Days Following Infection With M. Pneumoniae,[3]; [15],92 ± 15
same,Tetrazolium Reduction 7 days post infection,[4]; 10^-8 moles/liter,1.066 ± 0.035
same,Tetrazolium Reduction 7 days post infection,[4]; 10^-9 moles/liter,1.016 ± 0.029
same,Tetrazolium Reduction 7 days post infection,[4]; 10^-10 moles/liter,0.543 ± 0.142
same,Tetrazolium Reduction 7 days post infection,[4]; 10^-22 moles/liter (so in the source),0.453 ± 0.033
same,ability to reduce tetrazolium of rings exposed to M. pneumoniae compared with uninfected controls,[4]; at least 10^-9 M,indistinguishable from uninfected controls
same,Tetrazolium Reduction 7 Days Following Infection With M. Pneumoniae,[4]; [8],1.071 ± 0.065 OD/mg
same,Tetrazolium Reduction 7 Days Following Infection With M. Pneumoniae,[4]; [9],1.068 ± 0.050 OD/mg
same,Tetrazolium Reduction 7 Days Following Infection With M. Pneumoniae,[4]; [10],1.062 ± 0.039 OD/mg
same,Tetrazolium Reduction 7 Days Following Infection With M. Pneumoniae,[4]; [11],0.893 ± 0.055 OD/mg
same,Tetrazolium Reduction 7 Days Following Infection With M. Pneumoniae,[4]; [12],0.722 ± 0.032 OD/mg
same,Tetrazolium Reduction 7 Days Following Infection With M. Pneumoniae,[4]; [13],0.386 ± 0.030 OD/mg
same,Tetrazolium Reduction 7 Days Following Infection With M. Pneumoniae,[4]; [14],0.379 ± 0.051 OD/mg
same,Tetrazolium Reduction 7 Days Following Infection With M. Pneumoniae,[4]; [15],0.381 ± 0.048 OD/mg
same,electron microscopic and histopathic examination of epithelium,[5],destruction of their epithelium
same,surface morphology of rings exposed to M. pneumoniae compared with uninfected controls,[6],indistinguishable from uninfected controls
same,protective effects on delayed addition,"[7]; 2,4-DMP withheld until attachment is essentially complete",significantly reduced or abolished completely
same,alteration of the infectious process,[7]; concentrations less than or equal to 10^-10 M,failed to alter the infectious process
same,"inhibiting or altering the course of the infective process, relative to the other dimethylphenol isomers",[7]; conditions of these studies and at the concentrations tested,more effective than any of the other isomers
same,effect on the course of infection of explants exposed to M. pneumoniae,[7]; very low concentrations in the culture media,dramatically alters the usual course of events
